Experimental findings from article PMC12136037, “Type II kinase inhibitors that target Parkinson’s disease–associated LRRK2” (Science Advances, 2025) are described below.

For the assay, the target named is T1, LRRK2^RCKW (Homo sapiens, UniProt Q5S007).
T1 construct: LRRK2 R1327 to E2527; His6-Z-tag (TEV cleavable) (N, cleaved yes); host or cells: Sf9 insect cells (baculovirus)
T1 sequence (Q5S007 1327-2527): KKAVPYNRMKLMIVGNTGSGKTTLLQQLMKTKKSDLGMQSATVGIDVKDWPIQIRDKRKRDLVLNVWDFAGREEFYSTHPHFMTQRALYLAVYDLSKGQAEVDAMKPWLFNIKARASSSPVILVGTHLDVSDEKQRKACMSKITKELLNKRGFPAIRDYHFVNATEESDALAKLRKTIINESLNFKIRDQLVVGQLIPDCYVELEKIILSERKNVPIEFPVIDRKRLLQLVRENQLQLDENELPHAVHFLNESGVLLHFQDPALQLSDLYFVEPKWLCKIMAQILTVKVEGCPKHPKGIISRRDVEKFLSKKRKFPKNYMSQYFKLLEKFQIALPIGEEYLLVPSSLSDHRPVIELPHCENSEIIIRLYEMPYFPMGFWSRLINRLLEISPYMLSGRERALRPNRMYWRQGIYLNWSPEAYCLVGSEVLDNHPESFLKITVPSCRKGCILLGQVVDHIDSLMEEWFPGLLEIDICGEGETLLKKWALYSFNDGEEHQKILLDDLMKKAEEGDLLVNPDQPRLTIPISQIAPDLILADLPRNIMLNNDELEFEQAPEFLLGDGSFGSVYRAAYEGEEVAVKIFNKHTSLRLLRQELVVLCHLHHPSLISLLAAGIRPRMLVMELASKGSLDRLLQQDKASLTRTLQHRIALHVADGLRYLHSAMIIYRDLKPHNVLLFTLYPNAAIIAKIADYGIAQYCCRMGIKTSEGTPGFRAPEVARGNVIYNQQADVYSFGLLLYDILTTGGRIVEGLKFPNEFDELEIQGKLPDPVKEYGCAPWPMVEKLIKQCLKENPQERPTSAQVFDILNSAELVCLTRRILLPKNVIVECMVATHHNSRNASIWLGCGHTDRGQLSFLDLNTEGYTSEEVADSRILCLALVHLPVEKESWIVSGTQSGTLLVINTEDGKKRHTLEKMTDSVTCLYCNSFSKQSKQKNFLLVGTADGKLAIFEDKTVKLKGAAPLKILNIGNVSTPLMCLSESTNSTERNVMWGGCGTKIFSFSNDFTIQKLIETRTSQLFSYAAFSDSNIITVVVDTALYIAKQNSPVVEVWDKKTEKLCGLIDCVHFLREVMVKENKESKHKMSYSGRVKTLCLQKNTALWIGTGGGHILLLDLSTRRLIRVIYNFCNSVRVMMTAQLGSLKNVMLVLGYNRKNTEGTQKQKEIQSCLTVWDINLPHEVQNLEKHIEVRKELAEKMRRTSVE
In words: Single-molecule in vitro kinesin motility assay (TIRF) in the presence of LRRK2^RCKW. Format: biochemical. The settings on record: for Raw data per microtubule (Figure 6c/6e, kinesin motility): individual microtubule values; for Mean each experiment (Figure 6c/6e raw data, kinesin motility): mean of each independent experiment; for rescue of kinesin motility in the presence of LRRK2^RCKW: MLi-2 5 μM, Ponatinib, RN277, RN341 10 μM. How it is done: The excitation and emission paths were filtered using appropriate single band-pass filter cubes (Chroma). […] Illumination and image acquisition was controlled by NIS Elements Advanced Research software (Nikon; www.microscope.healthcare.nikon.com/products/software/nis-elements/nis-elements-advanced-research, RRID:SCR_014329).
Single-molecule total internal reflection fluorescence (TIRF) motility experiments were performed in flow chambers using the microscopy setup described above. Flow chambers were made by adhering 1^1/2 thickness cover glass (Corning) to a SuperFrost Plus microscope slide (Electron Microscopy Sciences) with double sided tape. Before flow chamber assembly, cover glass was washed in 1 M HCl at 60°C for 1 hour and sonicated in 100% ethanol for 10 min to reduce nonspecific binding. […] In brief, flow chambers were functionalized by incubation with biotin-BSA (1 mg/ml; Sigma-Aldrich) for 3 min, followed by streptavidin (0.5 mg/ml) for a further 3 min. Taxol-stabilized microtubules were diluted 1:100 in motility assay buffer [30 mM Hepes (pH 7.4), 50 mM potassium acetate, 2 mM magnesium acetate, 1 mM EGTA, 10% glycerol, 1 mM DTT, and 20 μM Taxol] and incubated with the flow chamber for 3 min. Following incubation, the flow chambers with adhered microtubules were washed three times with LRRK2 buffer [20 mM Hepes (pH 7.4), 80 mM NaCl, 0.5 mM TCEP, 5% glycerol, 2.5 mM MgCl2, and 20 μM GDP] before incubation for 5 min with either LRRK2 buffer with DMSO or specified kinase inhibitors (0 nM LRRK2^RCKW) or LRRK2 buffer containing LRRK2^RCKW and DMSO or kinase inhibitors as indicated. In all cases, DMSO or the indicated kinase inhibitors were incubated with LRRK2 buffer in the presence or absence of LRRK2^RCKW for 10 min before addition and incubation within the flow chambers.
Data were blinded before analysis. Kymographs were generated from motility movies and quantified for percent motility using ImageJ V.2.14.0 as previously described ([22], [63]). Processive, diffusive, and nonmotile events were manually annotated for calculation of the percentage of processive events per microtubule. […] Single-molecule movements with multiple behaviors were counted as multiple events. For percentage motility per microtubule measurements, processive events were divided by total events (nonmotile, diffuse, and processive) per kymograph.
For statistical analysis, brightness and contrast were adjusted in ImageJ for all motility movies and kymographs. Statistical analyses were performed in GraphPad Prism 10 (www.graphpad.com/, RRID:SCR_002798). Specific statistical analysis descriptors, n values, and P values can be found in the corresponding figure legends. All TIRF experiments were analyzed from three independent technical replicates.

“And” between values parts separate entries of the source, which are not always exact repeats. Equal entries are not always repeated.

On to `Cc1ccc(-n2nc(C(C)(C)C)cc2NC(=O)Nc2cccc(-c3c[nH]c4nc(Cl)nc(N5CCOCC5)c34)c2)cc1` [Compound 30], for which the “rescue of kinesin motility in the presence of LRRK2^RCKW” value (“rescue of kinesin motility” below) is given as “rescued kinesin motility”. For the same molecule, where the note is “0nM RCKW, listed as RN277”, the “Raw data per microtubule (Figure 6c/6e, kinesin motility)” value (shortened to “Raw data per microtubule”) is 85.8824 and 78.125 and 82.8829 and 82.3529 and 90 and 85.1064; the “Mean each experiment (Figure 6c/6e raw data, kinesin motility)” value (from here on “Mean each experiment”) was 80.5039 and 86.1765 and 85.4944. For the same molecule, where the note is “100nM RCKW, listed as RN277”, the “Raw data per microtubule” value was 94.0299 and 83.3333 and 78.0142 and 83.1325 and 78.4314 and 95.5556; the “Mean each experiment” value is 80.6738 and 80.7819 and 94.7927.
For the molecule `CCSc1nc(NC)c2c(-c3cccc(NC(=O)Nc4cc(C(C)(C)C)nn4-c4ccc(C)cc4)c3)c[nH]c2n1` [Compound 32], the “rescue of kinesin motility” value is given as “rescued kinesin motility”. Further, for the setting “0nM RCKW, listed as RN341”, the “Raw data per microtubule” value was 77.4648 and 83.4483 and 76.4045 and 86.4865 and 75.9259 and 86.2385; the “Mean each experiment” value is 79.9264 and 81.2062 and 81.8517. Where the note is “100nM RCKW, listed as RN341”, the “Raw data per microtubule” value was 76.0563 and 76.9912 and 82.5688 and 91.0891 and 75.8621 and 85.9155; the “Mean each experiment” value is 79.78 and 83.4756 and 80.9859.
For the molecule `Cc1ccc(C(=O)Nc2ccc(CN3CCN(C)CC3)c(C(F)(F)F)c2)cc1C#Cc1cnc2cccnn12` [Ponatinib, reference compound], the “rescue of kinesin motility” value is given as “rescued kinesin motility”. Moreover, for the setting “0nM RCKW”, the “Raw data per microtubule” value is 83.3333 and 79.7203 and 85.1562 and 84.9462 and 85.9649 and 81.3725; the “Mean each experiment” value was 82.4383 and 85.4556 and 82.3529. For the setting “100nM RCKW”, the “Raw data per microtubule” value is 85.8491 and 82.7225 and 82.5758 and 84.8485 and 75 and 80.5556; the “Mean each experiment” value was 82.6491 and 79.9242 and 83.2023.
